In US20150010928A1, “MEANS AND METHODS FOR ASSESSING AN ENDOCRINE DISEASE OR DISORDER” (priority 2012, published 2015):
Marks after values point to notes of the source that are not given here.

System: male rats
Test: Plasma metabolite profiling (GC-MS, LC-MS, SPE-LC-MS) in male rats dosed once daily over 28 days (OECD 407)
Type: in vivo, rat
Details: high dose; for Mannose: Table 15c
Summary of the method: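 Polar and lipid fractions profiled by GC-MS and LC-MS/MRM, steroids by online SPE-LC-MS; pool-normalized data compared to controls by Welch test as treatment ratios and p-values.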

C[C@]12CCC(=O)C=C1CC[C@@H]1[C@@H]2CC[C@@]2(C)[C@H]1CC[C@]2(C)O [17-alpha-Methyltestosterone]
Mannose (m7, male rats): 1.14 *
3,4-Dihydroxyphenylacetic acid (DOPAC) (m7, male rats, Table 15d): 0.6 *
18-Hydroxy-11-deoxycorticosterone (m7, male rats, Table 15d): 0.35 *
Glycerol phosphate, lipid fraction (m7, male rats, Table 15d): 0.28 *
Homovanillic acid (HVA) (m7, male rats, Table 15d): 0.74 *
Lysophosphatidylcholine (C18:1) (m7, male rats, Table 15d): 0.66 *
Lysophosphatidylethanolamine (C22:5) (m7, male rats, Table 15d): 0.77 *
Phosphate, lipid fraction (m7, male rats, Table 15d): 0.51 *
Phosphatidylcholine (C18:0,C18:1) (m7, male rats, Table 15d): 0.78
Sphingomyelin (d18:1, C16:0) (m7, male rats, Table 15d): 0.34 *
Sphingomyelin (d18:1,C23:0) (m7, male rats, Table 15d): 0.49 *
Sphingomyelin (d18:1,C24:0) (m7, male rats, Table 15d): 0.46 *
Sphingomyelin (d18:2,C18:0) (m7, male rats, Table 15d): 0.4
TAG No 02 (m7, male rats, Table 15d): 0.41 *
myo-Inositol, lipid fraction (m7, male rats, Table 15d): 0.4 *
Cholesterol (m7, Table 14b): 0.29
Choline plasmalogen No 02 (m7, Table 14b): 0.55
Lignoceric acid (C24:0) (m7, Table 14b): 0.28
Sphingomyelin (d18:1, C16:0) (m7, Table 14b): 0.34
Sphingomyelin (d18:2, C16:0) (m7, Table 14b): 0.39
erythro-Sphingosine (d18:1) (m7, Table 14b): 0.17
Mannose (m14, male rats): 1.03
3,4-Dihydroxyphenylacetic acid (DOPAC) (m14, male rats, Table 15d): 0.69 *
18-Hydroxy-11-deoxycorticosterone (m14, male rats, Table 15d): 0.94
Glycerol phosphate, lipid fraction (m14, male rats, Table 15d): 0.63 *
Homovanillic acid (HVA) (m14, male rats, Table 15d): 0.68 *
Lysophosphatidylcholine (C18:1) (m14, male rats, Table 15d): 0.78 *
Lysophosphatidylethanolamine (C22:5) (m14, male rats, Table 15d): 0.88 *
Phosphate, lipid fraction (m14, male rats, Table 15d): 0.64 *
Phosphatidylcholine (C18:0,C18:1) (m14, male rats, Table 15d): 0.69 *
Sphingomyelin (d18:1, C16:0) (m14, male rats, Table 15d): 0.28 *
Sphingomyelin (d18:1,C23:0) (m14, male rats, Table 15d): 0.76
Sphingomyelin (d18:1,C24:0) (m14, male rats, Table 15d): 0.47 *
Sphingomyelin (d18:2,C18:0) (m14, male rats, Table 15d): 0.31 *
TAG No 02 (m14, male rats, Table 15d): 0.3 *
myo-Inositol, lipid fraction (m14, male rats, Table 15d): 0.49 *
Cholesterol (m14, Table 14b): 0.41
Choline plasmalogen No 02 (m14, Table 14b): 0.64
Lignoceric acid (C24:0) (m14, Table 14b): 0.39
Sphingomyelin (d18:1, C16:0) (m14, Table 14b): 0.28
Sphingomyelin (d18:2, C16:0) (m14, Table 14b): 0.38
erythro-Sphingosine (d18:1) (m14, Table 14b): 0.21
Mannose (m28, male rats): 1.2 *
3,4-Dihydroxyphenylacetic acid (DOPAC) (m28, male rats, Table 15d): 0.74
18-Hydroxy-11-deoxycorticosterone (m28, male rats, Table 15d): 0.55 *
Glycerol phosphate, lipid fraction (m28, male rats, Table 15d): 0.47 *
Homovanillic acid (HVA) (m28, male rats, Table 15d): 0.92
Lysophosphatidylcholine (C18:1) (m28, male rats, Table 15d): 0.73 *
Lysophosphatidylethanolamine (C22:5) (m28, male rats, Table 15d): 0.77 *
Phosphate, lipid fraction (m28, male rats, Table 15d): 0.6 *
Phosphatidylcholine (C18:0,C18:1) (m28, male rats, Table 15d): 0.7 *
Sphingomyelin (d18:1, C16:0) (m28, male rats, Table 15d): 0.27 *
Sphingomyelin (d18:1,C23:0) (m28, male rats, Table 15d): 0.48 *
Sphingomyelin (d18:1,C24:0) (m28, male rats, Table 15d): 0.44 *
Sphingomyelin (d18:2,C18:0) (m28, male rats, Table 15d): 0.36 *
TAG No 02 (m28, male rats, Table 15d): 0.34 *
myo-Inositol, lipid fraction (m28, male rats, Table 15d): 0.51 *
Cholesterol (m28, Table 14b): 0.39
Choline plasmalogen No 02 (m28, Table 14b): 0.49
Lignoceric acid (C24:0) (m28, Table 14b): 0.19
Sphingomyelin (d18:1, C16:0) (m28, Table 14b): 0.27
Sphingomyelin (d18:2, C16:0) (m28, Table 14b): 0.37
erythro-Sphingosine (d18:1) (m28, Table 14b): 0.19
